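Protocol summary: plate cells (96-well), add compound at 5 concentrations, incubate 48 h, interpolate endpoints linearly. Here, GI50 denotes the concentration required for 50% inhibition of growth. TGI marks complete inhibition of growth.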
Experiments:
Experiment in all cases: growth of human tumour cells (NCI), 48 h
[1] = tested on: CCRF-CEM leukemia
[2] = tested on: SK-MEL-2 melanoma
[3] = tested on: 786-0 renal
[4] = tested on: SNB-75 CNS
[5] = tested on: SK-OV-3 ovarian
[6] = tested on: NCI-H226 lung
[7] = tested on: HCC-2998 colon
[8] = tested on: CAKI-1 renal
[9] = tested on: EKVX NSCLC
[10] = tested on: OVCAR-8 ovarian
[11] = tested on: SK-MEL-5 melanoma
[12] = tested on: SNB-19 CNS
[13] = tested on: UACC-257 melanoma
[14] = tested on: RXF 393 renal
[15] = tested on: RPMI-8226 leukemia
[16] = tested on: SF-295 CNS
[17] = tested on: NCI-H522 lung
[18] = tested on: MDA-MB-435
[19] = tested on: NCI-H460 lung
[20] = tested on: HOP-92 NSCLC
[21] = tested on: SF-268 CNS
[22] = tested on: OVCAR-3 ovarian
[23] = tested on: HL-60(TB) leukemia
[24] = tested on: NCI/ADR-RES ovarian
[25] = tested on: DU-145 prostate
[26] = tested on: LOX IMVI melanoma
[27] = tested on: A498 renal
[28] = tested on: HCT-15 colon
[29] = tested on: U251 CNS
[30] = tested on: TK-10 renal
[31] = tested on: SK-MEL-28 melanoma
[32] = tested on: HS 578T breast
[33] = tested on: MCF7 breast
[34] = tested on: BT-549 breast
[35] = tested on: SW-620 colon
[36] = tested on: IGROV1 ovarian
[37] = tested on: M14 melanoma
[38] = tested on: ACHN renal
[39] = tested on: MDA-MB-231 breast
[40] = tested on: SN12C renal
[41] = tested on: MALME-3M melanoma
[42] = tested on: T-47D breast
[43] = tested on: PC-3 prostate

`Cc1ccc(NC(=O)c2cc(/C=C/C(=O)NO)cc(C(F)(F)F)c2)cc1Nc1nccc(-c2cccnc2)n1` was tested. Which GI50 [1] did it give?
Its GI50 is 0.559 µM.

What about the TGI [1] of the same molecule?
Its TGI is > 100 µM.

And the GI50 [2]?
Its GI50 is 1.09 µM.

And the TGI [2]?
The TGI was 3.32 µM.

And the GI50 [3]?
Its GI50 is 2.41 µM.

And the TGI [3]?
Its TGI is 5.31 µM.

What about the GI50 [4] of the same molecule?
Its GI50 is 2.66 µM.

And the TGI [4]?
The TGI was 5.83 µM.

What about the GI50 [5] of the same molecule?
The GI50 was 1.83 µM.

What about the TGI [5] of the same molecule?
The TGI was 3.78 µM.

What about the GI50 [6] of the same molecule?
The GI50 was 1.78 µM.

What about the TGI [6] of the same molecule?
The TGI was 5.09 µM.

And the GI50 [7]?
Its GI50 is 1.76 µM.

What about the TGI [7] of the same molecule?
The TGI was 3.56 µM.

And the GI50 [8]?
The GI50 was 2.23 µM.

What about the TGI [8] of the same molecule?
The TGI was 5.14 µM.

And the GI50 [9]?
The GI50 was 3.48 µM.

And the TGI [9]?
Its TGI is > 100 µM.

What about the GI50 [10] of the same molecule?
Its GI50 is 1.44 µM.

What about the TGI [10] of the same molecule?
The TGI was 4.68 µM.

And the GI50 [11]?
The GI50 was 1.57 µM.

And the TGI [11]?
The TGI was 3.01 µM.

What about the GI50 [12] of the same molecule?
The GI50 was 2.7 µM.

What about the TGI [12] of the same molecule?
Its TGI is 7.62 µM.

What about the GI50 [13] of the same molecule?
Its GI50 is 1.32 µM.

What about the TGI [13] of the same molecule?
The TGI was 2.8 µM.

What about the GI50 [14] of the same molecule?
The GI50 was 1.66 µM.

What about the TGI [14] of the same molecule?
Its TGI is 3.65 µM.

And the GI50 [15]?
Its GI50 is 2.11 µM.

What about the TGI [15] of the same molecule?
Its TGI is 8.76 µM.

And the GI50 [16]?
The GI50 was 1.77 µM.

And the TGI [16]?
The TGI was 3.43 µM.

And the GI50 [17]?
Its GI50 is 1.35 µM.

What about the TGI [17] of the same molecule?
Its TGI is 3.19 µM.

What about the GI50 [18] of the same molecule?
The GI50 was 1.53 µM.

What about the TGI [18] of the same molecule?
Its TGI is 4.24 µM.

What about the GI50 [19] of the same molecule?
The GI50 was 2 µM.

What about the TGI [19] of the same molecule?
The TGI was 12.3 µM.

What about the GI50 [20] of the same molecule?
The GI50 was 0.58 µM.

What about the TGI [20] of the same molecule?
Its TGI is 2.71 µM.

What about the GI50 [21] of the same molecule?
The GI50 was 2.35 µM.

What about the TGI [21] of the same molecule?
Its TGI is 5.7 µM.

What about the GI50 [22] of the same molecule?
Its GI50 is 1.52 µM.

And the TGI [22]?
Its TGI is 4.21 µM.

And the GI50 [23]?
The GI50 was 1.08 µM.

And the TGI [23]?
The TGI was 3.73 µM.

What about the GI50 [24] of the same molecule?
The GI50 was 44 µM.

And the TGI [24]?
Its TGI is > 100 µM.

And the GI50 [25]?
Its GI50 is 2.04 µM.

What about the TGI [25] of the same molecule?
Its TGI is 6.63 µM.

What about the GI50 [26] of the same molecule?
The GI50 was 1.35 µM.

And the TGI [26]?
Its TGI is 3.02 µM.

And the GI50 [27]?
The GI50 was 3.13 µM.

What about the TGI [27] of the same molecule?
Its TGI is 6.65 µM.

What about the GI50 [28] of the same molecule?
The GI50 was 3.34 µM.

What about the TGI [28] of the same molecule?
Its TGI is > 100 µM.

And the GI50 [29]?
Its GI50 is 1.49 µM.

What about the TGI [29] of the same molecule?
Its TGI is 3.03 µM.

What about the GI50 [30] of the same molecule?
Its GI50 is 2.98 µM.

And the TGI [30]?
The TGI was 6.91 µM.

And the GI50 [31]?
Its GI50 is 1.56 µM.

What about the TGI [31] of the same molecule?
Its TGI is 5.27 µM.

What about the GI50 [32] of the same molecule?
Its GI50 is 1.83 µM.

And the TGI [32]?
The TGI was 6.35 µM.

What about the GI50 [33] of the same molecule?
The GI50 was 1.75 µM.

And the TGI [33]?
The TGI was 5.85 µM.

And the GI50 [34]?
Its GI50 is 3.3 µM.

What about the TGI [34] of the same molecule?
The TGI was 8.5 µM.

And the GI50 [35]?
The GI50 was 1.54 µM.

And the TGI [35]?
The TGI was 5.66 µM.

And the GI50 [36]?
The GI50 was 1.74 µM.

What about the TGI [36] of the same molecule?
Its TGI is 4.36 µM.

What about the GI50 [37] of the same molecule?
Its GI50 is 1.34 µM.

What about the TGI [37] of the same molecule?
The TGI was 3.71 µM.

What about the GI50 [38] of the same molecule?
The GI50 was 3.12 µM.

What about the TGI [38] of the same molecule?
The TGI was > 100 µM.

And the GI50 [39]?
The GI50 was 1.14 µM.

What about the TGI [39] of the same molecule?
The TGI was 4.51 µM.

What about the GI50 [40] of the same molecule?
The GI50 was 2.54 µM.

And the TGI [40]?
Its TGI is > 100 µM.

And the GI50 [41]?
The GI50 was 0.58 µM.

What about the TGI [41] of the same molecule?
The TGI was 3.24 µM.

What about the GI50 [42] of the same molecule?
Its GI50 is 1.41 µM.

And the TGI [42]?
Its TGI is 5.8 µM.

What about the GI50 [43] of the same molecule?
Its GI50 is 3.02 µM.

What about the TGI [43] of the same molecule?
Its TGI is > 100 µM.

From PubChem BioAssay (NCI)
